This note sets out measurements from publication PMC5365662, “A Short Double-Stapled Peptide Inhibits Respiratory Syncytial Virus Entry and Spreading” (Antimicrobial Agents and Chemotherapy, 2017).

Data set [1] deals with 5HB, a recombinant protein containing 3 HR1 domains covalently attached to 2 HR2 domains. Particulars: Ala-scan variants, FP. The source says: The RSV HR2 region (residues 476 to 524) is a 49-amino-acid sequence that has been extensively characterized (Fig. 1). HR2 is a largely unstructured peptide in aqueous solution folding into an α-helix upon binding to trimeric HR1 coiled coils ([20]). […] We reduced HR2 (aa 483 to 516) into three short overlapping subdomains (subdomains 1 to 3) (Fig. 1). These peptides were scanned for various stapling combinations. […] Far-UV circular dichroism (CD) spectropolarimetry was used to investigate the effect of stapling on the α-helical content of the peptides. […] To assess the propensity of the stapled peptides to hinder the formation of the postfusion six-helix bundle required for viral cell entry, we used a 5-helix bundle (5HB) biochemical fluorescence polarization (FP) competition assay as previously described ([21], [22]).
The coding sequence of 5HB was designed as described previously and de novo synthesized by Genscript ([21]). The HR1 (aa 126 to 182) and HR2 (aa 476 to 524) coding sequences from wild-type RSV A2 strain F ([36]) were codon optimized for overexpression in Escherichia coli and cloned at NdeI/BamHI restriction sites of pET-15b to generate the expression plasmid for 5HB. The 5HB expression construct was transformed into Escherichia coli BL21(DE3). Cells were grown at 37°C to an optical density at 600 nm of 0.8 followed by induction with isopropyl-1-thio-β-D-galactopyranoside at a final concentration of 0.5 mM for 12 to 15 h. Cells were harvested by centrifugation, washed twice with PBS, and resuspended in 20 ml of PBS (pH 7.4), 500 mM NaCl, and 1% Triton X-100 supplemented with complete protease inhibitor. Cell suspensions were disrupted by sonication. Cell debris was removed through ultracentrifugation at 18,000 × g for 1 h at 4°C, and clarified cell lysate was mixed with 1 ml of nickel-nitrilotriacetic acid (Ni-NTA) agarose beads (Qiagen) preequilibrated with 20 ml of lysis buffer. The suspension was agitated for 1 h at 4°C and loaded onto a 5-ml polypropylene column (Qiagen). The column was washed twice with 8 ml of PBS (pH 7.4), 500 mM NaCl, 1% Triton X-100, and 100 mM imidazole. Proteins were eluted with 5 × 500 μl of a buffer containing PBS (pH 7.4), 300 mM imidazole, and 500 mM NaCl. The imidazole was removed by dialysis, and protein purity was assessed by SDS-polyacrylamide gel electrophoresis followed by Coomassie blue staining. Protein concentration was determined with the Qubit 2.0 Fluorometer (Life Technologies).
The T108 ([12]) peptide probe was synthesized by standard SPPS procedures using HCTU as a coupling reagent as described above. A 10-μl volume of recombinant 5HB protein in FP buffer (20 mM PBS [pH 7.4], 500 mM NaCl, 0.01% [vol/vol] Tween 20, and 0.05 mg/ml bovine gamma globulin) was preincubated for 10 min at room temperature with 10 μl of the appropriate concentration of the inhibitor, after which 10 μl of fluorescein isothiocyanate (FITC)-T106 was added and further incubated for 30 min at room temperature. The final concentrations of protein and probe were 50 nM and 2 nM, respectively. The fluorescence polarization assay was performed in 384-well plates using a Spectramax Paradigm (Molecular Devices), using excitation and emission wavelengths of 485 nm and 535 nm, respectively. The acquisition time was 700 ms, and the read height was 1 mm. All experiments were performed in duplicate. […] In order to ensure robust fitting for some fits, r0 was kept constant at the value measured for the free tracer in buffer.

The subject of data set [2] is rHRSV-mCherry in HEp-2 cells. Description: rHRSV-mCherry inhibition assay. The class given is cell-based, human respiratory syncytial virus. The conditions noted are these: Table 3 (Ala scan); HEp-2 cells, rHRSV-mCherry MOI 0.2, 2-fold serial dilutions (11 dilutions), duplicate; ± SD of fit. As to the method:
To measure the inhibitory activity of the peptide, the mCherry red fluorescence was quantified 48 h postinfection (p.i.).
Viral replication was quantified by measuring the mCherry fluorescence at 48 h p.i. and normalized based on the fluorescence of infected and untreated cells. (B) Cytotoxicity assay. HEp-2 cells were incubated in the presence of serial dilutions of peptides, and cell survival was quantified using the CellTiter-Glo Luminescent cell viability assay 24 h after the addition of the peptides. The signal was normalized based on the luminescence obtained for untreated cells. Error bars are standard deviations from duplicates.
HEp-2 cells were seeded at 5 × 10^4 cells per well in a 96-well plate the day before the infection. Peptides were 2-fold serially diluted in dimethyl sulfoxide (DMSO) (11 dilutions) and then further diluted in EMEM without phenol red and preincubated for 15 to 20 min with rHRSV-mCherry ([24]) at a final dilution with an MOI of 0.2 ([24]). The cells were incubated with the virus-peptide mixtures for a period of 1.5 to 2 h. The medium was then replaced by EMEM without phenol red containing 2% fetal bovine serum and the same concentration of peptide as the one that was used during the infection step. Plates were incubated 48 h at 37°C, and the mCherry fluorescence was measured using a spectrofluorometer (Tecan infinite M200PRO) with excitation and emission wavelengths of 580 and 620 nm, respectively. Relative fluorescence was normalized by the fluorescence of nontreated infected cells. Noninfected HEp-2 cells were used as standards for fluorescence background levels. Each experiment was performed in duplicate and repeated at least twice. The resulting inhibition curves were fitted in Igor Pro as described above.

The next data set can be described thus: circular dichroism. The conditions noted are these: 10 mM phosphate; pH 7.5; 25 °C; 50 uM.
The subject of data set [3] is recombinant GFP-expressing RSV (strain A2) in A549 cells. Type of data set: cell-based, human respiratory syncytial virus. Particulars: A549 cells, eGFP RSV, GFP-positive cells by FACS 24 h p.i. As to the method: A549 cells were infected with a recombinant green fluorescent protein (GFP)-expressing RSV (strain A2) ([23]), and the inhibitory activity of the peptide was quantified by flow cytometry.
Each peptide was diluted 3 times by 2-fold serial dilutions. eGFP RSV virus at an MOI of 0.5 was used for the infection, and GFP-positive cells were counted by FACS analysis 24 h p.i. The GFP data were normalized to the fluorescence values observed with virus only and plotted as percent inhibition.
Serial 4-fold dilutions of inhibitors were mixed with eGFP-encoding RSV virus ([23]) with a volume of virus required to achieve approximately 50% of infection in medium containing 2% fetal calf serum. The resulting mixture was added to 24-well plates containing A549 cells. Cells were incubated for 2 h at 37°C, the medium was replaced, and cells were incubated for an additional 24 h. Cells were treated with 300 μl of trypsin for 10 min at 37°C, and the detached cells were diluted in 1 ml of culture medium. Following centrifugation at 1,700 rpm, the pellet was resuspended in 300 μl of PBS–1% fetal bovine serum (FBS) (vol/vol) and GFP-positive cells were counted by fluorescence-activated cell sorter (FACS) analysis. The GFP data were normalized to the fluorescence value observed with virus only. The resulting inhibition curves were fitted in Igor Pro as described above.

Molecules are shown by their SMILES. Bridge positions count the residues as written; N and C are the ends. Square brackets hold non-standard residues; d marks the D form. Peptide text beside a SMILES is read from it. S5 = C=CCCC[C@](C)(N)C(=O)O

As to `CC[C@H](C)[C@H](NC(=O)[C@H](Cc1ccccc1)NC(=O)[C@]1(C)CCCC=CCCC[C@](C)(NC(=O)[C@@H](NC(=O)[C@H](CCCCN)NC(=O)[C@H](CCC(=O)O)NC(C)=O)[C@@H](C)CC)C(=O)N[C@@H](CCC(N)=O)C(=O)N[C@@H](CO)C(=O)N[C@@H](CC(C)C)C(=O)N1)C(=O)N[C@@]1(C)CCCC=CCCC[C@@](C)(C(=O)N[C@@H](CC(C)C)C(=O)N[C@@H](CC(C)C)C(=O)N[C@@H](Cc2c[nH]cn2)C(=O)N[C@@H](CC(N)=O)C(=O)N[C@H](C(N)=O)C(C)C)NC(=O)[C@H](CC(=O)O)NC(=O)[C@H](CO)NC(=O)[C@H](C)NC1=O` [Peptide K508A] (Ac-EKI[S5]QSL[S5]FI[S5]ASD[S5]LLHNV-NH2; staple 4-8, 11-15), the “competition with binding of fluorescently labeled T108 to recombinant 5HB (in words)” value (from here on “competition with binding”) in data set [1] was “none of these variants were able to compete”. This compound also had an EC50 in data set [2] of 10.9 ± 13.9 µM. Moreover, in the data set “circular dichroism”, the helicity was 76%.
For `CC[C@H](C)[C@H](NC(=O)[C@H](Cc1ccccc1)NC(=O)[C@]1(C)CCCC=CCCC[C@](C)(NC(=O)[C@@H](NC(=O)[C@H](CCCCN)NC(=O)[C@H](CCC(=O)O)NC(C)=O)[C@@H](C)CC)C(=O)N[C@@H](CCC(N)=O)C(=O)N[C@@H](CO)C(=O)N[C@@H](CC(C)C)C(=O)N1)C(=O)N[C@@]1(C)CCCC=CCCC[C@@](C)(C(=O)N[C@@H](CC(C)C)C(=O)N[C@@H](CC(C)C)C(=O)N[C@@H](Cc2c[nH]cn2)C(=O)N[C@@H](CC(N)=O)C(=O)N[C@H](C(N)=O)C(C)C)NC(=O)[C@H](CC(=O)O)NC(=O)[C@H](C)NC(=O)[C@H](CCCCN)NC1=O` [Peptide S509A] (Ac-EKI[S5]QSL[S5]FI[S5]KAD[S5]LLHNV-NH2; staple 4-8, 11-15), in that order: “none of these variants were able to compete”, 82 ± 1.56 µM and 62%.
With `CC[C@H](C)[C@@H]1NC(=O)[C@H](CO)NC(=O)[C@](C)(NC(=O)[C@H](CC(=O)O)NC(=O)[C@H](Cc2ccccc2)NC(C)=O)CCCCCCC=CCCC[C@@](C)(C(=O)N[C@@H](CCCCN)C(=O)N[C@H](C(=O)N[C@@H](CC(N)=O)C(=O)N[C@@H](CCC(N)=O)C(=O)N[C@@H](CO)C(=O)N[C@@H](CC(C)C)C(=O)N[C@@H](C)C(=O)N[C@@H](Cc2ccccc2)C(=O)N[C@H](C(=O)N[C@]2(C)CCCCCCC=CCCC[C@@](C)(C(=O)N[C@@H](CC(N)=O)C(=O)N[C@H](C(=O)N[C@@H](CC(N)=O)C(=O)N[C@@H](C)C(=O)NCC(=O)N[C@@H](CCCCN)C(=O)N[C@@H](CO)C(=O)N[C@H](C(N)=O)[C@@H](C)O)C(C)C)NC(=O)[C@H](CC(C)C)NC(=O)[C@H](CC(C)C)NC(=O)[C@H](CCC(=O)O)NC(=O)[C@H](CC(=O)O)NC(=O)[C@H](CO)NC(=O)[C@H](CCCCN)NC2=O)[C@@H](C)CC)[C@@H](C)CC)NC(=O)[C@H](CC(N)=O)NC(=O)[C@H](C(C)C)NC(=O)[C@H](CCC(N)=O)NC(=O)[C@H](CO)NC1=O` [RSV-SAHBD (Z), reference compound], the “inhibition of RSV-eGFP infection (in words)” value in data set [3] is “potency similar to that of peptides 4bb and 4ca”.
For the compound `CC[C@H](C)[C@@H]1NC(=O)[C@H](Cc2ccccc2)NC(=O)[C@@](C)(NC(=O)[C@H](CC(C)C)NC(=O)[C@H](CO)NC(=O)[C@H](CCC(N)=O)NC(=O)[C@H](CC(N)=O)NC(=O)[C@@H](NC(=O)[C@H](CCCCN)NC(=O)[C@H](CCC(=O)O)NC(C)=O)[C@@H](C)CC)CCCC=CCCC[C@@](C)(C(=O)N[C@@H](CO)C(=O)N[C@@H](CC(=O)O)C(=O)N[C@@]2(C)CCCC=CCCC[C@@](C)(C(=O)N[C@H](C(N)=O)C(C)C)NC(=O)[C@H](Cc3c[nH]cn3)NC(=O)[C@H](CC(C)C)NC(=O)[C@H](CC(C)C)NC2=O)NC(=O)[C@H](C)NC1=O` [Peptide R507A] (Ac-EKINQSL[S5]FIA[S5]SD[S5]LLH[S5]V-NH2; staple 8-12, 15-19), in data set [1], the “competition with binding” value is “none of these variants were able to compete”. This compound had an EC50 in data set [2] of 175 µM. Besides, the helicity in the data set “circular dichroism” is 45%.
On to `CC[C@H](C)[C@H](NC(=O)[C@H](CCCCN)NC(=O)[C@H](CCC(=O)O)NC(C)=O)C(=O)N[C@@]1(C)CCCC=CCCC[C@@](C)(C(=O)N[C@@H](Cc2ccccc2)C(=O)N[C@@H](C)C(=O)N[C@@]2(C)CCCC=CCCC[C@@](C)(C(=O)N[C@@H](CC(C)C)C(=O)N[C@@H](CC(C)C)C(=O)N[C@@H](Cc3c[nH]cn3)C(=O)N[C@@H](CC(N)=O)C(=O)N[C@H](C(N)=O)C(C)C)NC(=O)[C@H](CC(=O)O)NC(=O)[C@H](CO)NC(=O)[C@H](CCCCN)NC2=O)NC(=O)[C@H](CC(C)C)NC(=O)[C@H](CO)NC(=O)[C@H](CCC(N)=O)NC1=O` [Peptide I506A] (Ac-EKI[S5]QSL[S5]FA[S5]KSD[S5]LLHNV-NH2; staple 4-8, 11-15), for which, in data set [1], the “competition with binding” value is “none of these variants were able to compete”. In addition, in data set [2], the midpoint of the response, the EC50, lay at 10.4 ± 2.97 µM. In the data set “circular dichroism”, the helicity was 22%.
